Data from publication PMC2989405 (Cell, 2009).

Tests used:
rat MrgprA = target: T1, rat MrgprA (Rattus norvegicus, UniProt Q7TN49); assay: response of electroporated Mrgpr-deficient mouse DRG neurons; type: cell-based; settings: agonist
T1 sequence (Q7TN49 1-304): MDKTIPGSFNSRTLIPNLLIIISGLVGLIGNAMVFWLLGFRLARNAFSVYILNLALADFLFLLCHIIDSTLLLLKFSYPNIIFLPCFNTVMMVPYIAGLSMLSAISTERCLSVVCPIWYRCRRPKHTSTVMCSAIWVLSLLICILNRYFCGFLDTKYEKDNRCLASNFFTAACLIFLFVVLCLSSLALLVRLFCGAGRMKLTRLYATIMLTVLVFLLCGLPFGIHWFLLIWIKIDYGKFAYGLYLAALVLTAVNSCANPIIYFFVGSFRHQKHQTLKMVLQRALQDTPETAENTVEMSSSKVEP

MrgprA3 = target: T2, MrgprA3 (Mus musculus, UniProt Q91WW3); assay: calcium imaging; type: cell-based; settings: agonist; dose-response in figure
T2 sequence (Q91WW3 1-302): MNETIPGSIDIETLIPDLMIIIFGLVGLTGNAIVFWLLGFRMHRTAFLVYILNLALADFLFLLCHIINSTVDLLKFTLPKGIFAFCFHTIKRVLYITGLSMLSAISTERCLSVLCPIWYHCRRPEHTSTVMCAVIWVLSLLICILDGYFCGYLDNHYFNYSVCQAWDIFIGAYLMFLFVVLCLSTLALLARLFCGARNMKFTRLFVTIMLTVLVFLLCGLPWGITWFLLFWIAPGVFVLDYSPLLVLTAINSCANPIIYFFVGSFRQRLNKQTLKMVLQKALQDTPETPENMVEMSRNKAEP

CCN(CC)CCCC(C)Nc1ccnc2cc(Cl)ccc12 (centres unmarked) [chloroquine]
response of electroporated Mrgpr-deficient mouse DRG neurons (rat MrgprA): Expression of rat MrgprA in Mrgpr-clusterΔ^−/− DRG neurons conferred CQ sensitivity upon them

C=C[C@H]1CN2CC[C@H]1C[C@H]2[C@H](O)c1ccnc2ccc(OC)cc12 [quinine]
calcium imaging (fura-2) in transfected HEK293 cells (MrgprA3): Unlike CQ, quinine weakly activates MrgprA3
